One experiment relates to NF-κB. The experiment in a line: NF-κB-driven EGFP expression in colon (macroimaging, Western blot, confocal). Conditions: AS252424-treated vs vehicle-treated mice. The format is in vivo. The method, then:
Whole tissues were lysed in Laemmli buffer and 20 μg of protein was separated by SDS-PAGE, transferred to nitrocellulose membranes and protein detected using enhanced chemiluminescence reaction (ECL) as described previously. (Lippert et al., 2009). Primary antibodies used were phospho-p70S6K (T389) and p70S6K (Cell Signaling, Danvers, Mass., United States of America), EGFP (Sigma, St. Louis, Mo., United States of America), LC3 I/II (MBL) and Actin.
II10^−/−; NF-κB^EGFP mice were sacrificed; the colon was dissected and immediately imaged using a charge-coupled device camera in a light-tight imaging box with a dual-filtered light source and emission filters specific for EGFP (LT-99D2 Illumatools; Lightools Research, Encinitas, Calif., United States of America). For microimaging, colonic segments were cut open and fixed in 4% paraformaldehyde overnight at 4° C., and then permeabilized in 2% triton overnight at 4° C. The tissues were then immersed in FocusClear (CelExplorer labs) and then stained with DAPI. […]
A segment of the distal colon was lysed in 300 μl Laemmli buffer, homogenized and heated at 95° C. for 5 min. […] Targeted protein was detected using enhanced chemiluminescence reaction (ECL) as described previously (Muhlbauer et al., 2008). […] The density of Western blot bands was quantified using ImageJ and data were normalized to total AKT control. […]
(Immunoblotting shows a protein as a band on a membrane.)

The subject of a further experiment is C. jejuni. The experiment in a line: C. jejuni induced colitis, histological intestinal inflammation score. The conditions noted are these: AS252424 10 mg/kg i.p. daily, 6 days, vs vehicle. The format is in vivo, mice. The source says: All animal protocols were approved by the Institutional Animal Care and Use Committee of the University of North Carolina at Chapel Hill (Chapel Hill, N.C., United States of America). Germ-free 8 to 12 week old II10^−/−; NF-κBEGFP (129/SvEv; C57BL/6 mixed background) mice were transferred from germ-free isolators and immediately gavaged with 10^9 C. jejuni cfu/mouse (strain 81-176 (Korlath et al., 1985)). Mice were then housed under Specific Pathogen-Free (SPF) conditions and sacrificed at 5 or 12 days. […] Intestinal inflammation was scored by evaluating the degree of lamina propria immune cell infiltration, goblet cell depletion, architectural distortion, as well as crypt hyperplasia, ulceration, and abscesses using a score from 0-4. […] Cecal and colonic inflammation induced by S. typhimurium was evaluated using a score from 0-13 as described. […]
All animal protocols were approved by the Institutional Animal Care and Use Committee of the University of North Carolina at Chapel Hill (Chapel Hill, N.C., United States of America). […] Histological images were acquired using a DP71 camera and DP Controller 3.1.1.276 (Olympus, Center Valley, Pa., United States of America), and intestinal inflammation was scored on a scale of 0 to 4 as described before (Lippert et al., 2009; Sun et al., 2012). […]

The structures appear in SMILES notation.

As for `O=C1NC(=O)/C(=C/c2ccc(-c3ccc(F)cc3O)o2)S1` [AS252424], in the experiment with NF-κB, the “induction of EGFP expression (NF-κB activity) in the colon” value was “reduced”. Moreover, in the experiment with C. jejuni, the C. jejuni-induced colitis entry was “reduced”.

The values above are taken from US20130225629A1, “TARGETING PI3K/MTOR SIGNALLING AND NEUTROPHIL RECRUITMENT FOR TREATMENT OF ENTERITIS” (THE UNIVERSITY OF NORTH CAROLINA AT CHAPEL HILL, priority 2012, published 2013).
